These are literature values, as cited in paper PMC7330163 (Pharmacology Research & Perspectives, 2020).

One data set deals with CYP3A4. Conditions: man; cited from earlier work.
Data set [1] relates to hepatic OATP transporters. The following applies: accumulates in the liver; cited from earlier work.

Consider `COc1ccccc1Oc1c(NS(=O)(=O)c2ccc(C(C)(C)C)cc2)nc(-c2ncccn2)nc1OCCO` [bosentan], for which, in the data set on CYP3A4, the “CYP3A4 induction in clinical use” value is on record as “moderate CYP3A4 inducer”. The “substrate of OATP” value in data set [1] is listed as “is an OATP substrate”.
